Test results from patent US20260103465A1, “GLYCOGEN SYNTHASE KINASE 3 INHIBITORS AND USES THEREOF” (The Broad Institute, Inc., priority 2023, published 2026).
Like-named read-outs stand apart in the source and are kept apart here.

Columns and labels:
[1] = system: MDR1-MDCK cell monolayers; assay: MDR1/MDCK permeability assay; format: in vitro ADME; details: for MDCK Permeability (MDR1-MDCK); Mean; Papp(A-B) (10^−6 cm/s): A to B; for MDCK Permeability (MDR1-MDCK); Mean; Papp(B-A) (10^−6 cm/s): B to A
How it was run: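 Confluent MDR1-MDCK monolayers (7–11 days old), compound dosed at 5 μM in HBSSg (≤1% DMSO) apically or basolaterally, pH 7.4 both sides, receiver with 1% BSA, N=2. Both sides sampled at 120 min and quantified by LC-MS/MS; Papp in each direction, efflux ratio B-A/A-B and recovery reported.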

[2] = target: T1, GSK3a (GST-full length GSK3a) (Homo sapiens, UniProt P49840); assay: GSK3a TR-FRET kinase inhibition assay; format: biochemical
T1 construct: GST-full length GSK3a [SignalChem G08-10G]; purchased SignalChem G08-10G
T1 sequence (P49840 whole entry): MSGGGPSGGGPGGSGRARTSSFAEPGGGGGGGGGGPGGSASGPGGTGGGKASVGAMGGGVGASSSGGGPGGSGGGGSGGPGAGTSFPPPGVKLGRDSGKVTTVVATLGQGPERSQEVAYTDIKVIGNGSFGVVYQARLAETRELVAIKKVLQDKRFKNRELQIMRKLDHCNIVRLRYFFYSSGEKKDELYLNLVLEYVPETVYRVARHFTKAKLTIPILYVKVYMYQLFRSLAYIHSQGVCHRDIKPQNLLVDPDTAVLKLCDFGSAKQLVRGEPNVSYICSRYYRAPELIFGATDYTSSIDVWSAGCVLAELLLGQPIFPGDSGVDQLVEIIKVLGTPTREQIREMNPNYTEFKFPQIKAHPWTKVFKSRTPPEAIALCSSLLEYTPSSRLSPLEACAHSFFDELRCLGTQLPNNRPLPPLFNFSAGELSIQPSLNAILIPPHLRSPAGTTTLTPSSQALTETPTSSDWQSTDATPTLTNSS
How it was run: (§1)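 GST-tagged full-length human kinase (1 nM), pre-incubated 30 min with compound, then reacted 100 min at ambient temperature at pH 7.5 with 200 nM biotinylated phospho-S645 glycogen synthase 631–650 peptide and ATP at 2 μM–1 mM. After EDTA quench, Tb-pSer641 antibody/streptavidin-d2 TR-FRET 665/615 ratio fitted for IC50.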

[3] = target: T2, GSK3b (GST-full length GSK3b) (Homo sapiens, UniProt P49841); assay: GSK3b TR-FRET kinase inhibition assay; format: biochemical
T2 construct: GST-full length GSK3b: [SignalChem G08-9G]; purchased SignalChem G08-9G
T2 sequence (P49841 whole entry): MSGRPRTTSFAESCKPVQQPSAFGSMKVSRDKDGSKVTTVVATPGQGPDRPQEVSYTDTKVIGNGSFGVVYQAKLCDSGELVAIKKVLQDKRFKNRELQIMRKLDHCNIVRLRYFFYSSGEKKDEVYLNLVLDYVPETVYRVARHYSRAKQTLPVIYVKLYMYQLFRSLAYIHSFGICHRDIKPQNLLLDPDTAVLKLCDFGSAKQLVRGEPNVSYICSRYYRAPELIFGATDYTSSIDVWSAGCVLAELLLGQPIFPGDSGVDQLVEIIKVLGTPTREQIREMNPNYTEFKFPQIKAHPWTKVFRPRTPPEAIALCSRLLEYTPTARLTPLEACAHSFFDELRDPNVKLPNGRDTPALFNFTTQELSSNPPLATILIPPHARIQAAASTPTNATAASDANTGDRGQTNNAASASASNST
How it was run: as §1

[4] = Human liver microsomal stability; format: in vitro ADME; details: human liver microsomes
Protocol: Stability of compound (5 μL of a 10 mM DMSO solution) in human liver microsomes was tested in duplicate by incubating compound at 1 μM for 60 minutes at 37° C. Compound level at 60 minutes was compared to level at 0 minutes, and percent remaining was calculated. Order by selecting Microsomal Stability in Prometheus, checking boxes for desired species. Assay Controls: microsomes with NADPH without compound-matrix interference. Microsomes plus compound without NADPH—non-enzymatic instability.

[5] = 4 μM ATP, read-out: GSK3α TR-FRET 4 μM ATP GMean IC50
[6] = 1 mM ATP, Table 3, read-out: GSK3a TR-FRET 1 mM ATP Average IC50
[7] = 1 mM ATP, Table 4, read-out: GSK3α TR-FRET 1 mM ATP GMean IC50
[8] = 2 μM ATP, read-out: GSK3β TR-FRET 2 μM ATP GMean IC50
[9] = 1 mM ATP, Table 3, read-out: GSK3b TR-FRET 1 mM ATP Average IC50
[10] = 1 mM ATP, Table 4, read-out: GSK3β TR-FRET 1 mM ATP GMean IC50

SMILES	MDCK Permeability (MDR1-MDCK); Mean; Papp(A-B) (10^−6 cm/s) ([1]; Table 4)	MDCK Permeability (MDR1-MDCK); Mean; Papp(B-A) (10^−6 cm/s) ([1]; Table 4)	MDCK Permeability (MDR1-MDCK); Mean; P. Ratio(B-A/A-B) Efflux Ratio ([1]; Papp B-A/A-B, Table 4)	IC50 [2, 5]	IC50 [2, 6]	IC50 [2, 7]	IC50 [3, 8]	IC50 [3, 9]	IC50 [3, 10]	Microsome Stability (Human) (DMPK_BIIB); Mean; in vitro t1/2 ([4]; Table 4)	MDCK Permeability (MDR1-MDCK); Mean; Papp(A-B) (10^−6 cm/s) ([1]; Table 3)	MDCK Permeability (MDR1-MDCK); Mean; Papp(B-A) (10^−6 cm/s) ([1]; Table 3)	MIDCK Permeability (MDR1-MDCK); Mean; P. Ratio(B-A/A-B) Efflux Ratio ([1]; Papp B-A/A-B, Table 3)	Microsome Stability (Human) (DMPK_BIIB); Mean; in vitro t1/2 ([4]; Table 3)
CCC1(c2cccc(-c3c(F)cncc3OC)c2)C2=C(CC(C)(C)CC2=O)Nc2ncc(F)cc21 (single isomer, unassigned) [Compound 161B]	5.2 10^−6 cm/s	33 10^−6 cm/s	6.4	≤ 100 nM	100 to 1000 nM	≤ 100 nM	≤ 100 nM	1000 to 5000 nM	≤ 100 nM	5.6 min				
CCC1(c2cccc(-c3ccnc4c3CCCC4)c2)C2=C(CC(C)(C)CC2=O)Nc2ncc(F)cc21 (single isomer, unassigned) [Compound 165B]	4.4 10^−6 cm/s	24 10^−6 cm/s	5.5	≤ 100 nM		100 to 1000 nM	≤ 100 nM		100 to 1000 nM	4.7 min				
CC(C)(C)Cc1cnccc1-c1cccc(C2(C)C3=C(CC(C)(C)CC3=O)Nc3ncc(F)cc32)c1 (single isomer, unassigned) [Compound 168A]					100 to 1000 nM			100 to 1000 nM			2.5 10^−6 cm/s	2.2 10^−6 cm/s	0.90	33 min
CCC1(c2cccc(O)c2)C2=C(CC(C)(C)CC2=O)Nc2ncccc21 (single isomer, unassigned) [Compound 1004A]	1.2 10^−6 cm/s	42 10^−6 cm/s	37	≤ 100 nM			≤ 100 nM			7.7 min				
CCC1(c2cccc(O)c2)C2=C(CC(C)(C)CC2=O)Nc2ncccc21 (single isomer, unassigned) [Compound 1004B]	0.7 10^−6 cm/s	47 10^−6 cm/s	65	1000 to 5000 nM			> 5000 nM			5.3 min				
CCC1(c2ccccc2)C2=C(Nc3ncccc31)C(F)C(C)(C)CC2=O (single isomer, unassigned) [Compound 1006C]	18 10^−6 cm/s	31 10^−6 cm/s	1.8	1000 to 5000 nM			1000 to 5000 nM			37 min				
CCC1(c2ccccc2)C2=C(CC(C)(C)NC2=O)Nc2ncc(F)cc21 (single isomer, unassigned) [Compound 1007B]	7.8 10^−6 cm/s	45 10^−6 cm/s	5.7	≤ 100 nM		1000 to 5000 nM	≤ 100 nM		5000 to 20000 nM	211 min				
CCC1(c2ccccc2)C2=C(CC3(CCC3)CC2=O)Nc2ncc(F)cc21 (single isomer, unassigned) [Compound 1008A]	22 10^−6 cm/s	26 10^−6 cm/s	1.2	≤ 100 nM		100 to 1000 nM	≤ 100 nM		1000 to 5000 nM	19 min				
CCC1(c2ccccc2)C2=C(CC3(CCC3)CC2=O)Nc2ncc(F)cc21 (single isomer, unassigned) [Compound 1008B]	21 10^−6 cm/s	31 10^−6 cm/s	1.5	1000 to 5000 nM			1000 to 5000 nM			1.6 min				
CCC1(c2cccc(O)c2)C2=C(CC(C)(C)CC2=O)Nc2ncc(F)cc21 (single isomer, unassigned) [Compound 1010A]	0.60 10^−6 cm/s	28 10^−6 cm/s	51	> 5000 nM			> 5000 nM			6.1 min				
CCC1(c2cccc(O)c2)C2=C(CC(C)(C)CC2=O)Nc2ncc(F)cc21 (single isomer, unassigned) [Compound 1010B]	0.80 10^−6 cm/s	39 10^−6 cm/s	48	≤ 100 nM			≤ 100 nM			11 min				
CCC1(c2cccc(C(C)C)c2)C2=C(CC(C)(C)CC2=O)Nc2ncccc21 (single isomer, unassigned) [Compound 1011B]	15 10^−6 cm/s	28 10^−6 cm/s	1.9	≤ 100 nM			≤ 100 nM			3.8 min				
CCC1(c2cccc(-c3cccnc3)c2)C2=C(CC(C)(C)CC2=O)Nc2ncccc21 (single isomer, unassigned) [Compound 1015A]	4.7 10^−6 cm/s	44 10^−6 cm/s	9.5	≤ 100 nM			≤ 100 nM			2.8 min				
CCC1(c2cccc(-c3ccccn3)c2)C2=C(CC(C)(C)CC2=O)Nc2ncccc21 (single isomer, unassigned) [Compound 1016A]	4.5 10^−6 cm/s	32 10^−6 cm/s	6.9	≤ 100 nM			≤ 100 nM			1.5 min				
CCC1(c2cccc(-c3ccncc3)c2)C2=C(CC(C)(C)CC2=O)Nc2ncccc21 (single isomer, unassigned) [Compound 1017A]	6.9 10^−6 cm/s	32 10^−6 cm/s	4.6	≤ 100 nM			100 to 1000 nM			6.2 min				
CCC1(c2cccc(-c3ccnn3C)c2)C2=C(CC(C)(C)CC2=O)Nc2ncccc21 (single isomer, unassigned) [Compound 1019A]	4.2 10^−6 cm/s	39 10^−6 cm/s	9.5	≤ 100 nM		100 to 1000 nM	≤ 100 nM		1000 to 5000 nM	4.8 min				
